Several values for one entry are separate records, joined by “and”; a condition that tells them apart may be missing. Equal values may be shown once.
Experiments:
[1] = target: rat GPR40 (Rattus norvegicus (Rat), UniProt Q8K3T4); assay: GPR40 calcium flux assay, HEK293 cells stably expressing rat GPR40; assay type: cell-based; conditions: transfected HEK293 cells stably expressing rat GPR40; individual determinations listed; read-out: rGPR40 Ca2+ Assay EC50
Experimental: (§1) Compounds were tested in a calcium flux assay using transfected HEK293 cells stably expressing either human GPR40 or rat GPR40. Human GPR40 expressing cells were cultured in DMEM-High Glucose media supplemented with 10% fetal bovine serum, 1×L-Glutamine, 1× Penicillin/Streptomycin and 500 μg/mL G418. Rat GPR40 expressing cells were cultured in DMEM-High Glucose media supplemented with 10% fetal bovine serum and 1 μg/mL puromycin. Cells were plated into poly-D-lysine coated 384-well plates and cultured overnight in a 37° C. humidified tissue culture incubator under 5% CO2/90% O2 atmosphere. On the day of the experiment, the culture media was replaced with assay buffer (HBSS, 20 mM HEPES, 0.1% BSA) and the cells incubated at 37° C. for 1 h. Calcium-sensitive fluorescent dye (Fluo 8 No-Wash Calcium Dye, ABD Bioquest) was then added and the cells incubated for another 30 min at 37° C. followed by 15 min at room temperature while protected from the light. The cell plate and a plate of diluted compounds of Formula (I) were loaded into a fluorescent plate reader that added compounds onto the cells while measuring the fluorescence intensity of each well. The plate reader recorded fluorescence intensity at 1 second intervals for 8 min and provided the data for analysis in an Excel format. EC50 values were calculated using Prism (GraphPad) software.

[2] = target: human GPR40 (Homo sapiens (Human), UniProt O14842); assay: GPR40 calcium flux assay, HEK293 cells stably expressing human GPR40; assay type: cell-based; conditions: transfected HEK293 cells stably expressing human GPR40; individual determinations listed; read-out: hGPR40 Ca2+ Assay EC50
human GPR40, sequence (O14842 whole entry): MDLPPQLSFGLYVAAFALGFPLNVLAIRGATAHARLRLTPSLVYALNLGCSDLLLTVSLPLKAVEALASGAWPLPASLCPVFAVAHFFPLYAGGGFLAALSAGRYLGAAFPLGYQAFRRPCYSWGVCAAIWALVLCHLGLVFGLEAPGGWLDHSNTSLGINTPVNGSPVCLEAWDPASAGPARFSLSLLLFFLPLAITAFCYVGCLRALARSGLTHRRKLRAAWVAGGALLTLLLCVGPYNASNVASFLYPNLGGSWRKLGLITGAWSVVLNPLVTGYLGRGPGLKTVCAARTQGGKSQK
Experimental: as §1

rat GPR40, sequence (Q8K3T4 whole entry): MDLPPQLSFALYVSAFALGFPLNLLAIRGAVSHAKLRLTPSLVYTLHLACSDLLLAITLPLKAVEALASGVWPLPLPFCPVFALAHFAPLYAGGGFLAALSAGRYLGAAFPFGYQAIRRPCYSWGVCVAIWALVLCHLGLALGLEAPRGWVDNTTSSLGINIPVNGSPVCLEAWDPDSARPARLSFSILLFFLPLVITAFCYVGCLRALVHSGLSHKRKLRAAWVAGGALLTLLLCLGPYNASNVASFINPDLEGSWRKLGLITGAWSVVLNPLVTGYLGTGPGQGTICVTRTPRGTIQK

Row | SMILES | EC50 [1] | EC50 [2]
1 | COc1cc(-c2ncc(COc3cccc([C@@H](CC(=O)O)C4CC4)c3)nc2C=C(C)C)c(F)cn1 [Cpd 11, (3S)-3-cyclopropyl-3-[3-[[5-(5-fluoro-2-methoxy-4-pyridyl)-6-(2-methylprop-1-enyl)pyrazin-2-yl]methoxy]phenyl]propanoic acid] | 29 nM and 23 nM | 11 nM and 7 nM
2 | COc1ccc(F)c(-c2ncc(COc3cccc([C@@H](CC(=O)O)C4CC4)c3)nc2-c2ccccc2)c1 [Cpd 18, (3S)-3-cyclopropyl-3-[3-[[5-(2-fluoro-5-methoxy-phenyl)-6-phenyl-pyrazin-2-yl]methoxy]phenyl]propanoic acid] | 105 nM and 67 nM | 13 nM and 10 nM
3 | COc1cc(-c2ncc(COc3cccc([C@@H](CC(=O)O)C4CC4)c3)nc2C2=CCCC2(C)C)c(F)cn1 [Cpd 15, (3S)-3-cyclopropyl-3-[3-[[6-(5,5-dimethylcyclopenten-1-yl)-5-(5-fluoro-2-methoxy-4-pyridyl)pyrazin-2-yl]methoxy]phenyl]propanoic acid] | 21 nM and 15 nM | 15 nM and 7 nM
4 | COc1cc(-c2ncc(COc3cccc([C@@H](CC(=O)O)C4CC4)c3)nc2OCC(C)C)c(F)cn1 [Cpd 12, (3S)-3-cyclopropyl-3-[3-[[5-(5-fluoro-2-methoxy-4-pyridyl)-6-isobutoxy-pyrazin-2-yl]methoxy]phenyl]propanoic acid] | 24 nM and 21 nM | 11 nM and 8 nM
5 | COc1ccc(F)c(-c2ncc(COc3cccc([C@@H](CC(=O)O)C4CC4)c3)nc2N2CCOCC2)c1 [Cpd 45, (3S)-3-cyclopropyl-3-[3-[[5-(2-fluoro-5-methoxy-phenyl)-6-morpholinopyrazin-2-yl]methoxy]phenyl]propanoic acid] | 138 nM and 134 nM | 34 nM
6 | COc1ccc(F)c(-c2ncc(COc3cccc([C@@H](CC(=O)O)C4CC4)c3)nc2N(C)C)c1 [Cpd 38, (3S)-3-cyclopropyl-3-[3-[[6-(dimethylamino)-5-(2-fluoro-5-methoxy-phenyl)pyrazin-2-yl]methoxy]phenyl]propanoic acid] | 399 nM and 395 nM | 55 nM and 42 nM
7 | COc1ccc(F)c(-c2ncc(COc3cccc([C@@H](CC(=O)O)C4CC4)c3)nc2N(C)C(C)C)c1 [Cpd 34, (3S)-3-cyclopropyl-3-[3-[[5-(2-fluoro-5-methoxy-phenyl)-6-[isopropyl(methyl)amino]pyrazin-2-yl]methoxy]phenyl]propanoic acid] | 112 nM and 104 nM and 88 nM and 86 nM | 33 nM and 30 nM
8 | COc1ccc(F)c(-c2ncc(COc3cccc([C@@H](CC(=O)O)C4CC4)c3)nc2OCCC(F)(F)F)c1 [Cpd 32, (3S)-3-cyclopropyl-3-[3-[[5-(2-fluoro-5-methoxy-phenyl)-6-(3,3,3-trifluoropropoxy)pyrazin-2-yl]methoxy]phenyl]propanoic acid] | 119 nM and 94 nM | 30 nM and 28 nM
9 | CCCCc1nc(COc2cccc([C@@H](CC(=O)O)C3CC3)c2)cnc1-c1cc(OC)ccc1F [Cpd 3, (3S)-3-[3-[[6-butyl-5-(2-fluoro-5-methoxy-phenyl)pyrazin-2-yl]methoxy]phenyl]-3-cyclopropyl-propanoic acid] | 33 nM and 26 nM | 3 nM and 2 nM
10 | COc1cc(-c2ncc(COc3cccc([C@@H](CC(=O)O)C4CC4)c3)nc2OCC2CC2)c(F)cn1 [Cpd 48, (3S)-3-cyclopropyl-3-[3-[[6-(cyclopropylmethoxy)-5-(5-fluoro-2-methoxy-4-pyridyl)pyrazin-2-yl]methoxy]phenyl]propanoic acid] | 138 nM and 152 nM | 35 nM and 32 nM
11 | COc1cc(-c2ncc(COc3cccc([C@@H](CC(=O)O)C4CC4)c3)nc2OCC(C)(C)C)c(F)cn1 [Cpd 47, (3S)-3-cyclopropyl-3-[3-[[6-(2,2-dimethylpropoxy)-5-(5-fluoro-2-methoxy-4-pyridyl)pyrazin-2-yl]methoxy]phenyl]propanoic acid] | 13 nM and 14 nM | 3 nM
12 | COc1cccc(-c2ncc(COc3cccc([C@@H](CC(=O)O)C4CC4)c3)nc2C2=CCCC2(C)C)c1 [Cpd 35, (3S)-3-cyclopropyl-3-[3-[[6-(5,5-dimethylcyclopenten-1-yl)-5-(3-methoxyphenyl)pyrazin-2-yl]methoxy]phenyl]propanoic acid] | 356 nM and 242 nM | 50 nM and 25 nM
13 | COc1ccc(F)c(-c2ncc(COc3cccc([C@@H](CC(=O)O)C4CC4)c3)nc2OCC(C)C)c1 [Cpd 14, (3S)-3-cyclopropyl-3-[3-[[5-(2-fluoro-5-methoxy-phenyl)-6-isobutoxy-pyrazin-2-yl]methoxy]phenyl]propanoic acid] | 16 nM and 32 nM and 31 nM and 21 nM and 18 nM | 10 nM (2×) and 9 nM
14 | COc1ccc(F)c(-c2ncc(COc3cccc([C@@H](CC(=O)O)C4CC4)c3)nc2OC(C)C)c1 [Cpd 29, (3S)-3-cyclopropyl-3-[3-[[5-(2-fluoro-5-methoxy-phenyl)-6-isopropoxy-pyrazin-2-yl]methoxy]phenyl]propanoic acid] | 73 nM (2×) and 56 nM and 98 nM and 62 nM | 39 nM and 30 nM and 21 nM and 26 nM and 23 nM
15 | COc1cccc(-c2ncc(COc3cccc([C@@H](CC(=O)O)C4CC4)c3)nc2C2=CCCC2(C)C)c1F [Cpd 46, (3S)-3-cyclopropyl-3-[3-[[6-(5,5-dimethylcyclopenten-1-yl)-5-(2-fluoro-3-methoxy-phenyl)pyrazin-2-yl]methoxy]phenyl]propanoic acid] | 637 nM and 788 nM | 130 nM and 127 nM
16 | COc1ccc(F)c(-c2ncc(COc3cccc([C@@H](CC(=O)O)C4CC4)c3)nc2OCC2CC(C)(C)C2)c1 [Cpd 42, (3S)-3-cyclopropyl-3-[3-[[6-[(3,3-dimethylcyclobutyl)methoxy]-5-(2-fluoro-5-methoxy-phenyl)pyrazin-2-yl]methoxy]phenyl]propanoic acid] | 32 nM and 29 nM | 17 nM and 14 nM
17 | COc1ccc(F)c(-c2ncc(COc3cccc([C@@H](CC(=O)O)C4CC4)c3)nc2-c2cccc(C)c2)c1 [Cpd 20, (3S)-3-cyclopropyl-3-[3-[[5-(2-fluoro-5-methoxy-phenyl)-6-(m-tolyl)pyrazin-2-yl]methoxy]phenyl]propanoic acid] | 90 nM and 78 nM | 15 nM and 11 nM
18 | COc1ccc(F)c(-c2ncc(COc3cccc([C@@H](CC(=O)O)C4CC4)c3)nc2OCC2CC2)c1 [Cpd 21, (3S)-3-cyclopropyl-3-[3-[[6-(cyclopropylmethoxy)-5-(2-fluoro-5-methoxy-phenyl)pyrazin-2-yl]methoxy]phenyl]propanoic acid] | 65 nM and 57 nM | 17 nM and 12 nM
19 | COc1ccc(F)c(-c2ncc(COc3cccc([C@@H](CC(=O)O)C4CC4)c3)nc2-c2ccc(C(C)C)cc2)c1 [Cpd 25, (3S)-3-cyclopropyl-3-[3-[[5-(2-fluoro-5-methoxy-phenyl)-6-(4-isopropylphenyl)pyrazin-2-yl]methoxy]phenyl]propanoic acid] | 45 nM and 40 nM | 23 nM and 18 nM
20 | COc1cc(-c2ncc(COc3cccc([C@@H](CC(=O)O)C4CC4)c3)nc2OC2CCCC2)c(F)cn1 [Cpd 16, (3S)-3-[3-[[6-(cyclopentoxy)-5-(5-fluoro-2-methoxy-4-pyridyl)pyrazin-2-yl]methoxy]phenyl]-3-cyclopropyl-propanoic acid] | 38 nM and 36 nM | 11 nM and 10 nM
21 | COc1ccc(F)c(-c2ncc(COc3cccc([C@@H](CC(=O)O)C4CC4)c3)nc2CC(C)(C)C)c1 [Cpd 1, (3S)-3-cyclopropyl-3-[3-[[6-(2,2-dimethylpropyl)-5-(2-fluoro-5-methoxy-phenyl)pyrazin-2-yl]methoxy]phenyl]propanoic acid] | 39 nM and 25 nM | 2 nM
22 | COc1ccc(F)c(-c2ncc(COc3cccc([C@@H](CC(=O)O)C4CC4)c3)nc2NCC(C)(C)C)c1 [Cpd 44, (3S)-3-cyclopropyl-3-[3-[[6-(2,2-dimethylpropylamino)-5-(2-fluoro-5-methoxy-phenyl)pyrazin-2-yl]methoxy]phenyl]propanoic acid] | 59 nM and 69 nM | 17 nM and 11 nM
23 | COc1ccc(F)c(-c2ncc(COc3cccc([C@@H](CC(=O)O)C4CC4)c3)nc2OC2CCCCC2)c1 [Cpd 7, (3S)-3-[3-[[6-(cyclohexoxy)-5-(2-fluoro-5-methoxy-phenyl)pyrazin-2-yl]methoxy]phenyl]-3-cyclopropyl-propanoic acid] | 29 nM and 27 nM | 7 nM and 6 nM
24 | COc1cc(-c2ncc(COc3cccc([C@@H](CC(=O)O)C4CC4)c3)nc2-c2ccc(C)s2)c(F)cn1 [Cpd 28, (3S)-3-cyclopropyl-3-[3-[[5-(5-fluoro-2-methoxy-4-pyridyl)-6-(5-methyl-2-thienyl)pyrazin-2-yl]methoxy]phenyl]propanoic acid] | 57 nM and 54 nM | 26 nM and 23 nM
25 | COc1cc(-c2ncc(COc3cccc([C@@H](CC(=O)O)C4CC4)c3)nc2OC2CCCCC2)c(F)cn1 [Cpd 9, (3S)-3-[3-[[6-(cyclohexoxy)-5-(5-fluoro-2-methoxy-4-pyridyl)pyrazin-2-yl]methoxy]phenyl]-3-cyclopropyl-propanoic acid] | 20 nM and 16 nM | 7 nM
26 | COc1ccc(F)c(-c2ncc(COc3cccc([C@@H](CC(=O)O)C4CC4)c3)nc2N2CC3(CCC3)C2)c1 [Cpd 6, (3S)-3-[3-[(6-[2-azaspiro[3.3]heptan-2-yl]-5-(2-fluoro-5-methoxyphenyl)pyrazin-2-yl)methoxy]phenyl]-3-cyclopropylpropanoic acid] | 17 nM and 14 nM | 5 nM and 4 nM

Reference: patent publication US9688642B2, “Substituted pyrazines as GPR40 agonists” (Janssen Pharmaceutica NV, priority 2014, dated 2017)
